Laboratory results published in patent publication US20250161312A1, “A METHOD FOR THE TREATMENT OF CHEMOTHERAPEUTIC DRUG-INDUCED NEPHROTOXICITY” (INSTITUT NATIONAL DE LA SANTÉ ET DE LA RECHERCHE MÉDICALE, priority 2022, published 2025).

Key:
RPTEC/hTERT1 cells [1] = assay: Cell efflux (EFLUXX-ID) in RPTEC/hTERT1 cells; format: cell-based, human; details: cisplatin-treated cells, flow cytometry, FIG. 4C
Procedure: FIG. 4. […] (A) Platinum quantification (n=12-20/group) and relative expression of influx transporters (CTR1 and OCT2) and efflux transporters (ATP7B, MATE1, MATE2 and ABCC2; n=10-12/group) in kidney. (B) Platinum quantification (n=12-20/group) and relative expression of influx transporters (CTR1) and efflux transporters (ATP7B, MATE1, and ABCC2; n=5-6/group) in tumors. […] Results are the mean±SEM (n=3 independent experiments)
The basic cell efflux function was assessed using an EFLUXX-ID Green Multidrug Resistance Assay Kit (ENZO Life Sciences). Briefly, 2.5×10^5 cells/condition were collected, washed with PBS, and incubated with the EFLUXX-ID Green Detection Reagent for 30 minutes at 37° C., and then efflux was measured immediately by flow cytometry (CytoFLEX LX, Beckman Coulter). All experiments were performed in triplicate, with the measurement of 10,000 individual cells. Data were analyzed using Kaluza Analysis Software (Beckman Coulter).

RPTEC/hTERT1 cells [2] = assay: Catalase activity; format: cell-based, human; details: cisplatin 50 μM, KW6002 25 μM, 48 hours
Procedure: Catalase activity was assessed using the Catalase Colorimetric Activity Kit (Thermo Fisher Scientific) according to the manufacturer's instructions.

RPTEC/hTERT1 cells [3] = assay: Quantitative RT-PCR of Nrf2 and HO1 in RPTEC/hTERT1 cells; format: cell-based, human; details: in vitro
Procedure: FIG. 6. KW6002 alleviates the cisplatin-induced nephrotoxicity associated with apoptosis, lipid metabolism, and oxidative stress. (A) Tail moment assessed by comet assay; 50 cells/condition were analyzed. (B and C) KW6002 attenuates cisplatin-induced renal lipid accumulation, assessed by Red Oil staining. […] Results are the mean±SEM (n=6-9 mice/group). (F-H) KW6002 attenuated cisplatin-induced oxidative stress in RPTEC/hTERT1 cells. (F and G) Gene expression of Nrf2 (F) and HO1 (G). […] Results are the mean±SEM (n=3 independent experiments).
Total RNA from kidney samples was extracted with phenol/chloroform and subsequently precipitated in isopropanol as described previously (71). Total RNA from cultured renal cells was extracted using RNeasy Mini kit (Qiagen) following manufacturer's recommendations.
Reverse transcription was performed on 1 μg of RNA using high-capacity cDNA reverse transcription kit (Thermo Fisher), according the manufacturer's recommendation. Real time PCR was performed on a StepOne device using Taqman Gene Expression Master Mix (Thermo Fisher), following manufacturer's recommendations. […]

[4] = Cumulative model of cisplatin toxicity; format: in vivo; details: FIG. 5
Source text: FIG. 5. […] BUN quantification.

With `CCn1c(=O)c2c(nc(/C=C/c3ccc(OC)c(OC)c3)n2C)n(CC)c1=O` [KW-6002, 8-[(E)-2-(3,4-dimethoxyphenyl)vinyl]-1,3-diethyl-7-methyl-3,7-dihydro-1H-purine-2,6-dione] the efflux (RPTEC/hTERT1 cells [1]) was “strongly enhanced”, the “cisplatin-induced decrease in catalase activity” value (RPTEC/hTERT1 cells [2]) was “normalized” and the “cisplatin-induced increase in expression of Nrf2” value (RPTEC/hTERT1 cells [3]; FIG. 6F) was “normalized”. The “cisplatin-induced increase in expression of HO1” value (RPTEC/hTERT1 cells [3]; FIG. 6G) was “normalized” and the “BUN quantification, cisplatin-induced kidney injury” value [4] was “protects from cisplatin-induced kidney injury”.
